Measurements reported in patent US20050163781A1, “Tissue adhesion formation control” (priority 2002, published 2005).

Columns and labels:
adhesion formation [1] = settings: oxygen added to CO2 pneumoperitoneum, intubated mice
Description: In adult, female, NMRI (Naval Medical Research Institute) mice adhesions were induced by laparoscopy and evaluated by laparotomy under microscopic view in order to assess similar variables than in the rabbit model. […] The endoscope with an outer sheath for insufflation (total diameter 3.2 mm) was introduced caudal to the xyphoides by open laparoscopy. Survival after different insufflation pressures and duration of pneumoperitoneum was evaluated in non-intubated and intubated mice. […] For the induction of adhesions, after the establishment of the pneumoperitoneum, the 2nd and 3rd ports (14-gauge catheters) were introduced in the left and right flanks under laparoscopic vision. Standardised, opposing, linear lesions in the anti-mesenteric border of uterine horns and in the pelvic sidewalls were performed by monopolar coagulation. After 7 or 28 days adhesions were evaluated by scoring extent, type and tenacity and by a quantitative measurement. In non-intubated mice CO2 pneumoperitoneum at 2.5 cm of water was maintained for 5, 15, 30, 60 and 120 min to evaluate the effect of duration of pneumoperitoneum. […] To confirm this effect and to evaluate the effect of desiccation due to the flow rate though the animal, pneumoperitoneum was maintained for 5 and 60 min without flow and for 60 min with 1 and 10 ml/min of flow rate. […]

adhesion formation [2] = settings: 0, 1, 2.5, 5, 10 and 20% of oxygen in CO2 pneumoperitoneum for 1 hour, laser lesions, rabbits

In the case of `O=O` [oxygen], the “oxygen proportion giving half maximal reduction of adhesions” value (adhesion formation [1]) is reported as “around 1.5 % of oxygen”, the “oxygen proportion required for maximal response (reduction of adhesions)” value (adhesion formation [1]) is reported as 2-3 % of oxygen and the “oxygen proportion at which maximal effect (decrease of adhesion formation) was observed” value (adhesion formation [2]) is reported as 5 % of oxygen.
